What is called pIC50 is the IC50 on a negative log10 scale, so that one unit is a factor of ten.

Experimental findings from ChEMBL document CHEMBL1157031, “A novel copper complex of salicylaldehyde pyrazole hydrazone induces apoptosis through up-regulating integrin beta4 in H322 lung carcinoma cells” (Eur J Med Chem, 2010) are described below.

pIC50: −log10 of the molar value. The source made the active and inactive calls. The rule behind the calls is not given here.

Experiment [1] is described as follows: Cytotoxicity against human NCI-H322 cells after 48 hrs by MTT assay. It is filed as functional, cell-based. Particulars: NCI-H322, 48 h. For orientation: Tetrazolium dyes change colour on reduction, which living cells bring about.
The subject of another experiment is NCI-H1299. Put plainly: Cytotoxicity against human NCI-H1299 cells after 48 hrs by MTT assay. It counts as functional, cell-based. Particulars: NCI-H1299, 48 h.
The test system of another experiment is HUVEC. Put plainly: Cytotoxicity against HUVEC cells after 48 hrs by MTT assay. It is filed as cell-based. Particulars: Homo sapiens.
Another experiment has as its system NCI-H322. The experiment in a line: Induction of apoptosis in human NCI-H322 cells at 10 uM by Hoechst 33258 staining in presence of CuCl2. It counts as functional, cell-based.

As to `CC(C)(C)c1ccc(Cn2nc(-c3ccccc3)cc2C(=O)N/N=C/c2ccccc2O)cc1`, the negative logarithm of the IC50 (pIC50) in experiment [1] was 5.32; in the experiment with NCI-H1299, 5.24; in the experiment with HUVEC, 5.65. Also, the result with NCI-H322 was Active.
